Measurements reported in US10670605B2, “Cysteine reactive probes and uses thereof” (The Scripps Research Institute, priority 2015, dated 2020).

Key:
Assay in all cases: Competitive isoTOP-ABPP in situ (fragment-treated cells)
Type in all cases: cell-based
[1] = molecular target: T1, cysteines in MDA-MB-231 and Ramos cells (Homo sapiens, UniProt Q8NFH5)
T1 sequence (Q8NFH5 1-326): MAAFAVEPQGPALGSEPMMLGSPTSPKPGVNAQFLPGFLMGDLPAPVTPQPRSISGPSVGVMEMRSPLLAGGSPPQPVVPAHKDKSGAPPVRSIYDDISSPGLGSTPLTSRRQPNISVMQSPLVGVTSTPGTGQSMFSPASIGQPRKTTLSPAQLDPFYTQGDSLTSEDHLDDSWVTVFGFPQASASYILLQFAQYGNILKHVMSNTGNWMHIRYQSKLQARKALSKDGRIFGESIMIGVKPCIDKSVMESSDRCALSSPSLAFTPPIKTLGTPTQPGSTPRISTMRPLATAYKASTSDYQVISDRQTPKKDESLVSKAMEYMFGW

[2] = molecular target: cysteines in MDA-MB-231 and Ramos cells (Homo sapiens, UniProt Q9BRJ7); settings: 200 μM, insitu, 231
[3] = molecular target: cysteines in MDA-MB-231 and Ramos cells (Homo sapiens, UniProt O75362)
[4] = molecular target: T2, cysteines in MDA-MB-231 and Ramos cells (Homo sapiens, UniProt P29590)
T2 sequence (P29590 1-882): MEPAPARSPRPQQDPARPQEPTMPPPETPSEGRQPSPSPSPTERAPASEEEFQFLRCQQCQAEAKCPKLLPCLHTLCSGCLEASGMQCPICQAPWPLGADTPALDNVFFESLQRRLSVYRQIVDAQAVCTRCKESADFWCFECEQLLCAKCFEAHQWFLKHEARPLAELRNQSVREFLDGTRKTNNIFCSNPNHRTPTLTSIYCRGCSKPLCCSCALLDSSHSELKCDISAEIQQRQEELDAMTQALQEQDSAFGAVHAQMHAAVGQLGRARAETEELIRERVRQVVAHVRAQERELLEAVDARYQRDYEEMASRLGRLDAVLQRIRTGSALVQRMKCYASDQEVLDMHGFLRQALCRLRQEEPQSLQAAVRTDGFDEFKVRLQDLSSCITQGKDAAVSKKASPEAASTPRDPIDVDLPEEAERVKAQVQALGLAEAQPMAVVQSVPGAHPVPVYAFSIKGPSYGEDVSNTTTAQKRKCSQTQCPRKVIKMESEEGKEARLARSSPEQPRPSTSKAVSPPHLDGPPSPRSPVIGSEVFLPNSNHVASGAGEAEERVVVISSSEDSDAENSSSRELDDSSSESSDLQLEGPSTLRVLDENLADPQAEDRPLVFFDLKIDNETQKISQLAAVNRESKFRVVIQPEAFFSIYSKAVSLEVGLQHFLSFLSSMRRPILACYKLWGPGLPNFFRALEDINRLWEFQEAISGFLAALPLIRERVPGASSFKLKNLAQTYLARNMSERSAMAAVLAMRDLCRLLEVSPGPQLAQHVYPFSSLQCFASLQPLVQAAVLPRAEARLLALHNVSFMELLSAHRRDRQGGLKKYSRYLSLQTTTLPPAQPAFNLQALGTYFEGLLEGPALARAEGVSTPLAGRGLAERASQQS

[5] = molecular target: T3, cysteines in MDA-MB-231 and Ramos cells (Homo sapiens, UniProt Q96F86)
T3 sequence (Q96F86 1-508): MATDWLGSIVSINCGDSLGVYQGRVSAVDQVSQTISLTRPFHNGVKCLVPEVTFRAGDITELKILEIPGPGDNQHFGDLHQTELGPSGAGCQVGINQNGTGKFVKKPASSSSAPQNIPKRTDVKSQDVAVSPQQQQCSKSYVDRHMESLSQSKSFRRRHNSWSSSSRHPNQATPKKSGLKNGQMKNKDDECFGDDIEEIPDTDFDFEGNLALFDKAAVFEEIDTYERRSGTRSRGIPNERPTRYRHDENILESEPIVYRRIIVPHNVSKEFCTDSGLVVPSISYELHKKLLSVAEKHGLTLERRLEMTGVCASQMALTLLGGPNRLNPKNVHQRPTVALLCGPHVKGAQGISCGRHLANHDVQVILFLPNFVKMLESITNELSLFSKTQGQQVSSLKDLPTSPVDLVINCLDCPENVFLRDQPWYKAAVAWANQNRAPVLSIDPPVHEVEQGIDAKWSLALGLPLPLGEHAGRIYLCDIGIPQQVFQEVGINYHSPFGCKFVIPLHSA

[6] = molecular target: T4, cysteines in MDA-MB-231 and Ramos cells (Homo sapiens, UniProt Q9NX18)
T4 sequence (Q9NX18 30-166): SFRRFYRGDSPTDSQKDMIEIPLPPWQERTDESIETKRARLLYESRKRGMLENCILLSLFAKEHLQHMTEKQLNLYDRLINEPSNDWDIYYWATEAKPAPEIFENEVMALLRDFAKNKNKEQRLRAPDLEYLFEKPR

[7] = molecular target: cysteines in MDA-MB-231 and Ramos cells (Homo sapiens, UniProt P49189); settings: 200 μM, insitu
[8] = molecular target: cysteines in MDA-MB-231 and Ramos cells (Homo sapiens, UniProt P07858)
[9] = molecular target: cysteines in MDA-MB-231 and Ramos cells (Homo sapiens, UniProt Q9Y3D2)
[10] = molecular target: T5, cysteines in MDA-MB-231 and Ramos cells (Homo sapiens, UniProt Q86W42)
T5 sequence (Q86W42 1-341): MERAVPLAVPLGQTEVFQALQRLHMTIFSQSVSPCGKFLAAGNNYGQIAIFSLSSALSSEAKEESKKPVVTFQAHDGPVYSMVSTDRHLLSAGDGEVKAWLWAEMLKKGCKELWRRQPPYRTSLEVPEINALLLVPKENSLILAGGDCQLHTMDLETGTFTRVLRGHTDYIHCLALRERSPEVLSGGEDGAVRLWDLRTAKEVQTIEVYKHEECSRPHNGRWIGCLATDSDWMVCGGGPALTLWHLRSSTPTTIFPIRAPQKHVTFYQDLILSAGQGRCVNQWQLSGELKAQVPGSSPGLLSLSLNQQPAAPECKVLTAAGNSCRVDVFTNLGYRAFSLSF

[11] = molecular target: T6, cysteines in MDA-MB-231 and Ramos cells (Homo sapiens, UniProt O00244)
T6 sequence (O00244 1-68): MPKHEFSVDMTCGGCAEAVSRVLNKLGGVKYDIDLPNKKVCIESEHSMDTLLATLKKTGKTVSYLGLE

Sequence of cysteines in MDA-MB-231 and Ramos cells (Homo sapiens, UniProt Q9BRJ7) (Q9BRJ7 whole entry): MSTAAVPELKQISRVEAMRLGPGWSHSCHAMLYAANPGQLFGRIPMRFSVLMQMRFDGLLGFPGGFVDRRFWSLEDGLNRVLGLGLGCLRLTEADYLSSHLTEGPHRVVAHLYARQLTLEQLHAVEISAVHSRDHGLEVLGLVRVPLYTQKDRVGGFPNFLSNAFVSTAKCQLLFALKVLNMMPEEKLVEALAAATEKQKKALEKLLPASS
Sequence of cysteines in MDA-MB-231 and Ramos cells (Homo sapiens, UniProt Q9Y3D2) (Q9Y3D2 21-182): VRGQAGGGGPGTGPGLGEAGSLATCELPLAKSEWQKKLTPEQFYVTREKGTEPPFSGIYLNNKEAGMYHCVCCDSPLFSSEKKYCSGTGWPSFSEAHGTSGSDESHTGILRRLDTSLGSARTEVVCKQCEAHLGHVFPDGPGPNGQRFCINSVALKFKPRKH
Sequence of cysteines in MDA-MB-231 and Ramos cells (Homo sapiens, UniProt O75362) (O75362 whole entry): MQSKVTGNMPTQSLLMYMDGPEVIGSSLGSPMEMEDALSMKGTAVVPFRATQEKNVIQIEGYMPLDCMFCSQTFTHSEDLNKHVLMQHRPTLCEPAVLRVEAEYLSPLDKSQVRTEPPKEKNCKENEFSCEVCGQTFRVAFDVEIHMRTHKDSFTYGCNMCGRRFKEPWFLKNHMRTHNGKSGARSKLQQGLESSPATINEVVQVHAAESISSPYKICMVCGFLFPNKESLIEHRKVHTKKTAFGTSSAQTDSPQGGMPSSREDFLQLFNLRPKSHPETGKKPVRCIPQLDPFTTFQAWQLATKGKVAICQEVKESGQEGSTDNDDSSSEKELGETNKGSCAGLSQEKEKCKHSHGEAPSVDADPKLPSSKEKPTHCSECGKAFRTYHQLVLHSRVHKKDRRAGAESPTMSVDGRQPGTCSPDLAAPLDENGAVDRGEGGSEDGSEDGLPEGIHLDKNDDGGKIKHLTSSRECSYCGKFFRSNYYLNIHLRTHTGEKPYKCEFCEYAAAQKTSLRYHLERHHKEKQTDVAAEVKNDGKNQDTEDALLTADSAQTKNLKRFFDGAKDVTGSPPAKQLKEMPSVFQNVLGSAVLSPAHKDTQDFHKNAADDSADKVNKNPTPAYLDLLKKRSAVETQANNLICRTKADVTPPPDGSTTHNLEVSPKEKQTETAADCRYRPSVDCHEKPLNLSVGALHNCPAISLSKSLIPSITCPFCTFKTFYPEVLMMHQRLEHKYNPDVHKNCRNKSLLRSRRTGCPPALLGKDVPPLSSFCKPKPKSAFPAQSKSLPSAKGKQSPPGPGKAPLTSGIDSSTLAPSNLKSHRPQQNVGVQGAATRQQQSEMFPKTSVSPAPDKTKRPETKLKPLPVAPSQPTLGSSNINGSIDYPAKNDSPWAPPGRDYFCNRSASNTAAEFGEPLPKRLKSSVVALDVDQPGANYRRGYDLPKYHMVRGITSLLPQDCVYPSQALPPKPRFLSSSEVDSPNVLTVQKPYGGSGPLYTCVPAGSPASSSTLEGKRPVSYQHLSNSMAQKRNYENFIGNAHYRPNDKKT
Sequence of cysteines in MDA-MB-231 and Ramos cells (Homo sapiens, UniProt P49189) (P49189 whole entry): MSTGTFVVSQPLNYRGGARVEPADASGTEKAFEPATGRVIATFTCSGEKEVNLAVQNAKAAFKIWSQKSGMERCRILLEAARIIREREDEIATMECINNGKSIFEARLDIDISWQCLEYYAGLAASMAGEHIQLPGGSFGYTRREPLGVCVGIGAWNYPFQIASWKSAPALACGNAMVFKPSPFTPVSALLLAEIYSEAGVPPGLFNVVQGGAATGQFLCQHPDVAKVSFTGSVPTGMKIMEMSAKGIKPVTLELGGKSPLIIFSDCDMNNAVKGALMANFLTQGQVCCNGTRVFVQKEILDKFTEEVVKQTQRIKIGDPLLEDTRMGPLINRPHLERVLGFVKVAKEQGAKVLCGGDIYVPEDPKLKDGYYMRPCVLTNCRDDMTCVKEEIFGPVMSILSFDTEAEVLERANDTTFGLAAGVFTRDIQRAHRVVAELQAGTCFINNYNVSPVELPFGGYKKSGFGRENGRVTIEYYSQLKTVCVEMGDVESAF

SMILES: COc1ccc2c(c1)CCCN2C(=O)CCl [compound 2]
- isoTOP-ABPP reactivity Q8NFH5_C255 NUP35 ([1]; 200 μM, insitu, 231): 5.1
- isoTOP-ABPP reactivity Q9BRJ7_C88 NUDT16L1 [2]: 20.0
- isoTOP-ABPP reactivity O75362_C286 ZNF217 ([3]; 200 μM, insitu, 231): 8.9
- isoTOP-ABPP reactivity P29590_C389 PML ([4]; 200 μM, insitu, 231): 15.6
- isoTOP-ABPP reactivity Q96F86_C413 EDC3 ([5]; 200 μM, insitu, 231): 20.0
- isoTOP-ABPP reactivity Q9NX18_C83 SDHAF2 ([6]; 200 μM, insitu, 231): 3.1

SMILES: C=CC(=O)Nc1cc(F)c(N2CCN(C(=O)OC(C)(C)C)CC2)c(F)c1 [compound 38]
- isoTOP-ABPP ratio Q8NFH5_C255 ([1]; 200 μM, insitu, 231): 1.1
- isoTOP-ABPP ratio Q9BRJ7_C88 [2]: 0.4
- isoTOP-ABPP ratio P49189_C288 [7]; 231: 0.7
- isoTOP-ABPP ratio P07858_C211 ([8]; 200 μM, insitu, 231): 1.8
- isoTOP-ABPP ratio P29590_C389 ([4]; 200 μM, insitu, 231): 2.2
- isoTOP-ABPP ratio Q9Y3D2_C105 ([9]; 200 μM, insitu, 231): 1.6
- isoTOP-ABPP ratio Q86W42_C35 ([10]; 200 μM, insitu, 231): 0.8

SMILES: O=C(CCl)NC(=O)NC12CC3CC(CC(C3)C1)C2 [compound 12]
- isoTOP-ABPP ratio Q8NFH5_C255 ([1]; 200 μM, insitu, 231): 12.4
- isoTOP-ABPP ratio P49189_C288 [7]; 231: 1.8
- isoTOP-ABPP ratio O75362_C286 ([3]; 200 μM, insitu, 231): 20.0
- isoTOP-ABPP ratio, cysteine Q9Y3D2_C105 ([9]; 200 μM, insitu, 231): 20.0
- isoTOP-ABPP ratio Q9NX18_C83 ([6]; 200 μM, insitu, 231): 20.0

SMILES: C=CC(=O)N(Cc1cccnc1)c1cc(C(F)(F)F)cc(C(F)(F)F)c1 [compound 31]
- isoTOP-ABPP ratio Q9BRJ7_C88 [2]: 2.9
- isoTOP-ABPP ratio P29590_C389 ([4]; 200 μM, insitu, 231): 1.1
- isoTOP-ABPP ratio Q96F86_C413 ([5]; 200 μM, insitu, ramos): 1.3
- isoTOP-ABPP ratio Q86W42_C35 ([10]; 200 μM, insitu, 231): 0.5

SMILES: Cn1cc(S(=O)(=O)N2CCOCC2)cc1C(=O)NC(=O)CCl [compound 11]
- isoTOP-ABPP ratio Q8NFH5_C255 ([1]; 100 μM in situ 231): 1.3
- isoTOP-ABPP ratio, cysteine O00244_C12 ([11]; 100 μM in situ 231): 0.7
- isoTOP-ABPP ratio O75362_C286 ([3]; 100 μM in situ 231): 1.0
- isoTOP-ABPP ratio P07858_C211 ([8]; 100 μM in situ 231): 1.1
- isoTOP-ABPP ratio P29590_C389 ([4]; 100 μM in situ 231): 0.5
- isoTOP-ABPP ratio Q96F86_C413 ([5]; 100 μM in situ 231): 20.0
- isoTOP-ABPP ratio, cysteine Q9Y3D2_C105 ([9]; 100 μM in situ 231): 1.3
- isoTOP-ABPP ratio Q9NX18_C83 ([6]; 100 μM in situ 231): 1.1
- isoTOP-ABPP ratio Q86W42_C35 ([10]; 100 μM in situ 231): 1.3

SMILES: O=C(CCl)NCCc1c[nH]c2ccccc12 [compound 13]
- isoTOP-ABPP ratio Q8NFH5_C255 ([1]; 200 μM, insitu, 231): 1.5
- isoTOP-ABPP ratio, cysteine O00244_C12 ([11]; 200 μM, insitu, 231): 1.5
- isoTOP-ABPP ratio P49189_C288 ([7]; ramos): 12.0
- isoTOP-ABPP ratio O75362_C286 ([3]; 200 μM, insitu, 231): 1.1
- isoTOP-ABPP ratio O75362_C286 ([3]; 200 μM, insitu, ramos): 20.0
- isoTOP-ABPP ratio P07858_C211 ([8]; 200 μM, insitu, 231): 1.6
- isoTOP-ABPP ratio P29590_C389 ([4]; 200 μM, insitu, 231): 1.3
- isoTOP-ABPP ratio Q96F86_C413 ([5]; 200 μM, insitu, 231): 1.6
- isoTOP-ABPP ratio Q96F86_C413 ([5]; 200 μM, insitu, ramos): 2.0

SMILES: O=C(CCl)N1CCN(CC(=O)N2CCOCC2)CC1 [compound 29]
- isoTOP-ABPP ratio Q8NFH5_C255 ([1]; 200 μM, insitu, ramos): 1.6
- isoTOP-ABPP ratio O00244_C12 ([11]; 200 μM, insitu, ramos): 1.4
- isoTOP-ABPP ratio O75362_C286 ([3]; 200 μM, insitu, ramos): 1.0
- isoTOP-ABPP ratio Q96F86_C413 ([5]; 200 μM, insitu, ramos): 1.9
- isoTOP-ABPP ratio Q9NX18_C83 ([6]; 200 μM, insitu, ramos): 1.9

SMILES: O=C(CCl)NC12CC3CC(CC(C3)C1)C2 [compound 21]
- isoTOP-ABPP ratio Q8NFH5_C255 ([1]; 200 μM, insitu, 231): 1.8
- isoTOP-ABPP ratio, cysteine O00244_C12 ([11]; 200 μM, insitu, 231): 0.7
- isoTOP-ABPP ratio P49189_C288 [7]; 231: 1.0
- isoTOP-ABPP ratio O75362_C286 ([3]; 200 μM, insitu, 231): 1.1
- isoTOP-ABPP ratio P07858_C211 ([8]; 200 μM, insitu, 231): 2.6
- isoTOP-ABPP ratio P29590_C389 ([4]; 200 μM, insitu, 231): 20.0
- isoTOP-ABPP ratio Q96F86_C413 ([5]; 200 μM, insitu, 231): 0.8
- isoTOP-ABPP ratio Q9NX18_C83 ([6]; 200 μM, insitu, 231): 1.3

SMILES: O=C(CCl)N1CCC(Cc2ccccc2)CC1 [compound 9]
- isoTOP-ABPP reactivity O00244_C12 ATOX1 ([11]; 200 μM, insitu, 231): 4.7
- isoTOP-ABPP reactivity P49189_C288 ALDH9A1 [7]; 231: 20.0
- isoTOP-ABPP reactivity P07858_C211 CTSB ([8]; 200 μM, insitu, 231): 5.0
- isoTOP-ABPP reactivity Q86W42_C35 THOC6 ([10]; 200 μM, insitu, 231): 20.0
